Experimental data: patent US20160251332A1, “Herbicidal Compounds” (SYNGENTA PARTICIPATIONS AG, priority 2013, published 2016)

Experiments:
Format in all cases: in vivo
[1] = system: Abutilon theophrasti; assay: Pre-emergence herbicidal activity, ABUTH; conditions: Application pre-emergence, 1000 g/Ha, evaluated after 13 days, scale 0-5
Method: (§1) Seeds of a variety of test species were sown in standard soil in pots. After cultivation for one day (pre-emergence) under controlled conditions in a glasshouse (at 24/16° C., day/night; 14 hours light; 65% humidity), the plants were sprayed with an aqueous spray solution derived from the formulation of the technical active ingredient in acetone/water (50:50) solution containing 0.5% Tween 20 (polyoxyethelyene sorbitan monolaurate, CAS RN 9005-64-5). The test plants were then grown in a glasshouse under controlled conditions (at 24/16° C., day/night; 14 hours light; 65% humidity) and watered twice daily. After 13 days, the test was evaluated (5=total damage to plant; 0=no damage to plant).

[2] = system: Echinochloa crus-galli; assay: Pre-emergence herbicidal activity, ECHCG; conditions: Application pre-emergence, 1000 g/Ha, evaluated after 13 days, scale 0-5
Method: as §1

[3] = system: Alopecurus myosuroides; assay: Pre-emergence herbicidal activity, ALOMY; conditions: Application pre-emergence, 1000 g/Ha, evaluated after 13 days, scale 0-5
Method: as §1

[4] = system: Echinochloa crus-galli; assay: Post-emergence herbicidal activity, ECHCG; conditions: Application post-emergence, 1000 g/Ha, evaluated after 13 days, scale 0-5
Method: (§2) Seeds of a variety of test species were sown in standard soil in pots. After 8 days cultivation (post-emergence) under controlled conditions in a glasshouse (at 24/16° C., day/night; 14 hours light; 65% humidity), the plants were sprayed with an aqueous spray solution derived from the formulation of the technical active ingredient in acetone/water (50:50) solution containing 0.5% Tween 20 (polyoxyethelyene sorbitan monolaurate, CAS RN 9005-64-5). The test plants were then grown in a glasshouse under controlled conditions (at 24/16° C., day/night; 14 hours light; 65% humidity) and watered twice daily. After 13 days, the test was evaluated (5=total damage to plant; 0=no damage to plant).

[5] = system: Setaria faberi; assay: Pre-emergence herbicidal activity, SETFA; conditions: Application pre-emergence, 1000 g/Ha, evaluated after 13 days, scale 0-5
Method: as §1

[6] = system: Setaria faberi; assay: Post-emergence herbicidal activity, SETFA; conditions: Application post-emergence, 1000 g/Ha, evaluated after 13 days, scale 0-5
Method: as §2

[7] = system: Alopecurus myosuroides; assay: Post-emergence herbicidal activity, ALOMY; conditions: Application post-emergence, 1000 g/Ha, evaluated after 13 days, scale 0-5
Method: as §2

[8] = system: Abutilon theophrasti; assay: Post-emergence herbicidal activity, ABUTH; conditions: Application post-emergence, 1000 g/Ha, evaluated after 13 days, scale 0-5
Method: as §2

[9] = system: Amaranthus retroflexus; assay: Post-emergence herbicidal activity, AMARE; conditions: Application post-emergence, 1000 g/Ha, evaluated after 13 days, scale 0-5
Method: as §2

[10] = system: Amaranthus retroflexus; assay: Pre-emergence herbicidal activity, AMARE; conditions: Application pre-emergence, 1000 g/Ha, evaluated after 13 days, scale 0-5
Method: as §1

[11] = system: Zea mays; assay: Post-emergence herbicidal activity, ZEAMX; conditions: Application post-emergence, 1000 g/Ha, evaluated after 13 days, scale 0-5
Method: as §2

[12] = system: Zea mays; assay: Pre-emergence herbicidal activity, ZEAMX; conditions: Application pre-emergence, 1000 g/Ha, evaluated after 13 days, scale 0-5
Method: as §1

Structure (SMILES)	ABUTH damage score [1]	ECHCG damage score [2]	ALOMY damage score [3]	ECHCG damage score [4]	SETFA damage score [5]	SETFA damage score [6]	ALOMY damage score [7]	ABUTH damage score [8]	AMARE damage score [9]	AMARE damage score [10]	ZEAMX damage score [11]	ZEAMX damage score [12]
CN1CC(O)N(c2cc(C(F)(F)F)ccn2)C1=O (centres unmarked) [Compound A1, 4-hydroxy-1-methyl-3-[4-(trifluoromethyl)-2-pyridyl]imidazolidin-2-one]	5	5	4	5	4	5	5	5	5	5	5	3
CN1CC(O)N(c2cc(C(F)(F)F)c(-c3ccc(F)cc3)cn2)C1=O (centres unmarked) [Compound A2]	4	5	4	5	5	5	5	5	5	5	4	5
CN1CC(O)N(c2cc(C(F)(F)F)c(-c3ccccc3)cn2)C1=O (centres unmarked) [Compound A3]	5	5	4	5	5	5	5	5	5	5	2	4
CN1CC(O)N(c2cc(C(F)(F)F)c(-c3ccsc3)cn2)C1=O (centres unmarked) [Compound A4, 4-hydroxy-1-methyl-3-[5-(3-thienyl)-4-(trifluoromethyl)-2-pyridyl]imidazolidin-2-one]	2	4	3	5	3	5	4	5	5	5	0	2
CN1CC(O)N(c2cc(C(F)(F)F)c(I)cn2)C1=O (centres unmarked) [Compound A5, 4-hydroxy-3-[5-iodo-4-(trifluoromethyl)-2-pyridyl]-1-methyl-imidazolidin-2-one]	5	5	4	5	5	5	5	5	5	5	5	4
Cc1ccccc1-c1cnc(N2C(=O)N(C)CC2O)cc1C(F)(F)F (centres unmarked) [Compound A7]	2	1	1	5	1	5	4	5	5	3	3	1
CN1CC(O)N(c2cc(C(F)(F)F)c(-c3cccc(NS(C)(=O)=O)c3)cn2)C1=O (centres unmarked) [Compound A8]	2	1	1	1	3	1	1	4	5	2	1	2
CN1CC(O)N(c2cc(C(F)(F)F)c(-c3cccc(S(=O)(=O)N(C)C)c3)cn2)C1=O (centres unmarked) [Compound A10]	5	5	4	5	4	5	5	5	5	5	4	3
CN1CC(O)N(c2cc(C(F)(F)F)c(-c3cccc([S+](C)[O-])c3)cn2)C1=O (centres unmarked) [Compound A11]	2	1	1	3	1	3	2	5	5	2	2	0
CN(C)C(=O)c1cccc(-c2cnc(N3C(=O)N(C)CC3O)cc2C(F)(F)F)c1 (centres unmarked) [Compound A12]	3	1	0	2	1	5	2	5	5	1	2	0
COCc1cccc(-c2cnc(N3C(=O)N(C)CC3O)cc2C(F)(F)F)c1 (centres unmarked) [Compound A13]	2	2	2	4	2	4	3	5	5	3	2	1
CN1CC(O)N(c2cc(C(F)(F)F)c(-c3ccc(C#N)s3)cn2)C1=O (centres unmarked) [Compound A14]	3	3	2	5	2	5	4	5	5	5	3	2
COc1ccc(-c2cnc(N3C(=O)N(C)CC3O)cc2C(F)(F)F)c(OC)c1 (centres unmarked) [Compound A15]	3	1	1	4	2	3	3	5	5	2	1	0
CN1CC(O)N(c2cc(C(F)(F)F)c(-c3ccc(C#N)cc3)cn2)C1=O (centres unmarked) [Compound A16]	3	3	2	5	4	5	5	5	5	5	5	3
CN1CC(O)N(c2cc(C(F)(F)F)c(-c3cccc(C#N)c3)cn2)C1=O (centres unmarked) [Compound A17]	5	5	4	5	4	5	5	5	5	5	–	2
COC(F)(F)c1ccnc(N2C(=O)N(C)CC2O)c1 (centres unmarked) [Compound A50]	2	1	–	5	2	5	–	5	5	5	1	1
COCc1cnc(N2C(=O)N(C)CC2O)cc1C(F)(F)F (centres unmarked) [Compound A51]	5	5	–	5	5	5	–	5	5	5	3	3
COCCOCc1cnc(N2C(=O)N(C)CC2O)cc1C(F)(F)F (centres unmarked) [Compound A52]	5	5	–	5	5	5	–	5	5	5	5	4
